Consider 21 compounds from EP2257297B1, “COMPOUNDS FOR USE IN THE TREATMENT OF ACNE, SEBORRHOEA AND SEBHORROEIC DERMATITIS, OR FOR REDUCING SEBUM SECRETION” (priority 2008, dated 2009).

For this test, the target named is T1, human MC5R (Homo sapiens, UniProt P33032).
T1 construct: purchased Perkin Elmer RBXMC5M400UA
T1 sequence (P33032 whole entry): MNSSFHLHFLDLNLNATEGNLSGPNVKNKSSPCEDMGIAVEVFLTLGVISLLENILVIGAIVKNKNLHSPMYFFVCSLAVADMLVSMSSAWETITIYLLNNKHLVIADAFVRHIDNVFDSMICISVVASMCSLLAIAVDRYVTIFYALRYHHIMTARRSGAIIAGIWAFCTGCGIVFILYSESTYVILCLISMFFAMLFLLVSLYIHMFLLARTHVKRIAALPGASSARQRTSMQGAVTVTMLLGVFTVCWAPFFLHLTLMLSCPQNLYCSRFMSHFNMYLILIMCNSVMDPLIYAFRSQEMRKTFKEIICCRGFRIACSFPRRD
The experiment in a line: Human MC5R radioligand binding assay ([125I] NDP-MSH displacement, hMC5R membranes). Particulars: hMC5R assay as in Example 102; compounds tested as trifluoroacetate or hydrochloride salts, or as free base. The method, boiled down:
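Bound ligand collected by filtration on PEI-soaked GF/A filters and counted. Data fitted to a single-site competition model with fixed Hill coefficient to give EC50.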
On to `COc1cc(C(=O)NC[C@@H]2CCN(CC(c3ccccc3)c3ccccc3)C(=O)[C@H](CCCNC(=N)N)N2)c(OC)c2ccccc12` [Compound 215, N-(((3S,5S)-1-(2,2-diphenylethyl)-3-(3-guanidinopropyl)-2-oxo-1,4-diazepan-5-yl)methyl)-1,4-dimethoxy-2-naphthamide], for which the IC50 (usually the concentration that gives 50% inhibition) is less than 1 µM.
To `CN(C)C(=N)NCCC[C@@H]1N[C@H](CNC(=O)c2ccc3ccccc3c2)CCN(CC(c2ccccc2)c2ccccc2)C1=O` [Compound 216, N-(((3S,5S)-3-(3-(3,3-dimethylguanidino)propyl)-1-(2,2-diphenylethyl)-2-oxo-1,4-diazepan-5-yl)methyl)-2-naphthamide] belongs less than 0.1 µM; to `N=C(N)NCCC[C@@H]1N[C@H](CNC(=O)c2ccc3cc(N)ccc3c2)CCN(CC(c2ccccc2)c2ccccc2)C1=O` [Compound 218, 6-amino-N-(((3S,5S)-1-(2,2-diphenylethyl)-3-(3-guanidinopropyl)-2-oxo-1,4-diazepan-5-yl)methyl)-2-naphthamide], less than 10 µM.
To `Cc1ccc(/C=C/C(=O)NC[C@@H]2CCN(CC(c3ccccc3)c3ccccc3)C(=O)[C@H](CCCN)N2)cc1` [Compound 219, (E)-N-(((3S,5S)-3-(3-aminopropyl)-1-(2,2-diphenylethyl)-2-oxo-1,4-diazepan-5-yl)methyl)-3-p-tolylacrylamide] belongs less than 0.1 µM.
As for `NCCC[C@@H]1N[C@H](CNC(=O)/C=C/c2ccc(F)cc2)CCN(CC(c2ccccc2)c2ccccc2)C1=O` [Compound 220, (E)-N-(((3S,5S)-3-(3-aminopropyl)-1-(2,2-diphenylethyl)-2-oxo-1,4-diazepan-5-yl)methyl)-3-(4-fluorophenyl)acrylamide], the figure is less than 0.1 µM; as for `NCCC[C@@H]1N[C@H](CNC(=O)c2ccc3cc(F)ccc3c2)CCN(CC(c2ccccc2)c2ccccc2)C1=O` [Compound 221, N-(((3S,5S)-3-(3-aminopropyl)-1-(2,2-diphenylethyl)-2-oxo-1,4-diazepan-5-yl)methyl)-6-fluoro-2-naphthamide], less than 0.1 µM.
With `Cc1ccc(C(=O)NC[C@@H]2CCN(CC(c3ccccc3)c3ccccc3)C(=O)[C@H](CCCN)N2)cc1C` [Compound 223, N-(((3S,5S)-3-(3-aminopropyl)-1-(2,2-diphenylethyl)-2-oxo-1,4-diazepan-5-yl)methyl)-3,4-dimethylbenzamide], the IC50 is less than 1 µM.
To `NCCC[C@@H]1N[C@H](CNC(=O)c2ccc(Cl)c(Cl)c2)CCN(CC(c2ccccc2)c2ccccc2)C1=O` [Compound 224, N-(((3S,5S)-3-(3-aminopropyl)-1-(2,2-diphenylethyl)-2-oxo-1,4-diazepan-5-yl)methyl)-3,4-dichlorobenzamide] belongs less than 0.1 µM; to `O=C(NC[C@@H]1CCN(CC(c2ccccc2)c2ccccc2)C(=O)[C@H](CCCNC2CCCCC2)N1)c1ccc2ccccc2c1` [Compound 226, N-(((3S,5S)-3-(3-(cyclohexylamino)propyl)-1-(2,2-diphenylethyl)-2-oxo-1,4-diazepan-5-yl)methyl)-2-naphthamide], less than 0.1 µM.
As for `O=C(/C=C/c1ccc(F)cc1)NC[C@@H]1CCN(CC(c2ccccc2)c2ccccc2)C(=O)[C@H](CCCNC2CCCCC2)N1` [Compound 231, (E)-N-(((3S,5S)-3-(3-(cyclohexylamino)propyl)-1-(2,2-diphenylethyl)-2-oxo-1,4-diazepan-5-yl)methyl)-3-(4-fluorophenyl)acrylamide], the figure is less than 0.01 µM; as for `NCCC[C@@H]1N[C@H](CNC(=O)/C=C/c2ccc(F)cc2F)CCN(CC(c2ccccc2)c2ccccc2)C1=O` [Compound 233, (E)-N-(((3S,5S)-3-(3-aminopropyl)-1-(2,2-diphenylethyl)-2-oxo-1,4-diazepan-5-yl)methyl)-3-(2,4-difluorophenyl)acrylamide], less than 0.1 µM; as for `N#Cc1ccc(/C=C/C(=O)NC[C@@H]2CCN(CC(c3ccccc3)c3ccccc3)C(=O)[C@H](CCCN)N2)cc1` [Compound 234, (E)-N-(((3S,5S)-3-(3-aminopropyl)-1-(2,2-diphenylethyl)-2-oxo-1,4-diazepan-5-yl)methyl)-3-(4-cyanophenyl)acrylamide], less than 1 µM.
As for `NCCC[C@@H]1N[C@H](CNC(=O)/C=C/c2ccc3ccccc3c2)CCN(CC(c2ccccc2)c2ccccc2)C1=O` [Compound 235, (E)-N-(((3S,5S)-3-(3-aminopropyl)-1-(2,2-diphenylethyl)-2-oxo-1,4-diazepan-5-yl)methyl)-3-(naphthalen-2-yl)acrylamide], the figure is less than 1 µM.
As to `NCCC[C@@H]1N[C@H](CNC(=O)c2ccc(-c3ccc(Cl)cc3)o2)CCN(CC(c2ccccc2)c2ccccc2)C1=O` [Compound 237, N-(((3S,5S)-3-(3-aminopropyl)-1-(2,2-diphenylethyl)-2-oxo-1,4-diazepan-5-yl)methyl)-5-(4-chlorophenyl)furan-2-carboxamide], the IC50 was less than 0.1 µM.
Consider `NCCC[C@@H]1N[C@H](CNC(=O)c2ccc(-n3cccc3)cc2)CCN(CC(c2ccccc2)c2ccccc2)C1=O` [Compound 238, N-(((3S,5S)-3-(3-aminopropyl)-1-(2,2-diphenylethyl)-2-oxo-1,4-diazepan-5-yl)methyl)-4-(1H-pyrrol-1-yl)benzamide], for which the IC50 was less than 0.1 µM.
For the compound `NCCC[C@@H]1N[C@H](CNC(=O)C2CCN(c3ccccc3)C2=O)CCN(CC(c2ccccc2)c2ccccc2)C1=O` (stereo partly drawn) [Compound 239, N-(((3S,5S)-3-(3-aminopropyl)-1-(2,2-diphenylethyl)-2-oxo-1,4-diazepan-5-yl)methyl)-2-oxo-1-phenylpyrrolidine-3-carboxamide], the IC50 was less than 10 µM.
In the case of `NCCC[C@@H]1N[C@H](CNC(=O)c2cc(-c3ccc(Cl)cc3)on2)CCN(CC(c2ccccc2)c2ccccc2)C1=O` [Compound 240, N-(((3S,5S)-3-(3-aminopropyl)-1-(2,2-diphenylethyl)-2-oxo-1,4-diazepan-5-yl)methyl)-5-(4-chlorophenyl)isoxazole-3-carboxamide], the half-inhibitory concentration (IC50) is less than 0.1 µM.
To `NCCC[C@@H]1N[C@H](CNC(=O)c2cc(-c3ccco3)on2)CCN(CC(c2ccccc2)c2ccccc2)C1=O` [Compound 241, N-(((3S,5S)-3-(3-aminopropyl)-1-(2,2-diphenylethyl)-2-oxo-1,4-diazepan-5-yl)methyl)-5-(furan-2-yl)isoxazole-3-carboxamide] belongs less than 1 µM; to `NCCC[C@@H]1N[C@H](CNC(=O)c2csc(-c3ccccc3)n2)CCN(CC(c2ccccc2)c2ccccc2)C1=O` [Compound 242, N-(((3S,5S)-3-(3-aminopropyl)-1-(2,2-diphenylethyl)-2-oxo-1,4-diazepan-5-yl)methyl)-2-phenylthiazole-4-carboxamide], less than 1 µM; to `Cc1cc(C)n(-c2ccc(C(=O)NC[C@@H]3CCN(CC(c4ccccc4)c4ccccc4)C(=O)[C@H](CCCN)N3)cc2)n1` [Compound 243, N-(((3S,5S)-3-(3-aminopropyl)-1-(2,2-diphenylethyl)-2-oxo-1,4-diazepan-5-yl)methyl)-4-(3,5-dimethyl-1H-pyrazol-1-yl)benzamide], less than 1 µM.
To `Cc1ccc(/C=C/C(=O)NC[C@@H]2CCN(CC(c3ccccc3)c3ccccc3)C(=O)[C@H](CCCN)N2)s1` [Compound 255, (E)-N-(((3S,5S)-3-(3-aminopropyl)-1-(2,2-diphenylethyl)-2-oxo-1,4-diazepan-5-yl)methyl)-3-(5-methylthiophen-2-yl)acrylamide] belongs less than 1 µM.
